In patent US20250353891A1 (MEDIMMUNE LIMITED, priority 2022, published 2025):
Starred links: 1 amine or outer side, 2 acyl side, 3 side chain; linkers in the order of their positions; H or OH if unused. Non-standard residues stand in square brackets, D forms with d. Residues, ends and D or L forms follow the SMILES beside them. Groups on a side chain read outwards from the residue. *: point of attachment. γGlu = O=C(O)[C@H](CCC(=O)[*:2])N[*:1]; Stearoyl = CCCCCCCCCCCCCCCCCC(=O)*; Palmitoyl = CCCCCCCCCCCCCCCC(=O)*; αMeF = C[C@](N)(Cc1ccccc1)C(=O)O; PEG2 = NCCOCCOCCC(=O)O; Aib = CC(C)(N)C(=O)O

Legend:
[1] = biological target: human GLP-1 receptor (hGLP-1R) (Homo sapiens, UniProt P43220); experiment: cAMP production (HTRF) in CHO cells expressing hGLP-1R; format: cell-based; design: expressed in transfected cells; details: Table 6; % GLP-1R activity relative to GLP-1 / % GlucR activity relative to glucagon
Chain of human GLP-1 receptor (hGLP-1R) (P43220 24-463): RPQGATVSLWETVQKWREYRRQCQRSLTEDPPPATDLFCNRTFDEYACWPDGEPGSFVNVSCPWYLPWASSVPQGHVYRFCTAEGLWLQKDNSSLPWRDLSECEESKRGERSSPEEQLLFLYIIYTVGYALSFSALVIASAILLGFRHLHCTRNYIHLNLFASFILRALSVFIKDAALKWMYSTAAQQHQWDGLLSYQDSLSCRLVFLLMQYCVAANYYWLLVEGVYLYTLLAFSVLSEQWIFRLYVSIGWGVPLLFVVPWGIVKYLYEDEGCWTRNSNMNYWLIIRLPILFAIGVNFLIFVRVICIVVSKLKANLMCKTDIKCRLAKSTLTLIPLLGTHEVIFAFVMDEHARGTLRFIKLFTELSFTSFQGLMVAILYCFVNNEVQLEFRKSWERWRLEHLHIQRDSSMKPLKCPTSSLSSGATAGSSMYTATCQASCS
In short: (§1)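 Potency values represent EC50 from 4-parameter logistic curves of HTRF % Delta F signal. Receptor-expressing CHO cells (hGCGR 2×10^5 cells/mL, hGLP-1R 1×10^5 cells/mL) were exposed for 30 min at room temperature before two-step cAMP detection.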

[2] = biological target: human glucagon receptor (hGCGR) (Homo sapiens, UniProt P47871); experiment: cAMP production (HTRF) in CHO cells expressing hGCGR; format: cell-based; design: expressed in transfected cells; details: Table 6, peptides modified at position 17; cAMP in CHO hGCGR cells; geometric mean; read-out: hGluc-R EC50
Chain of human glucagon receptor (hGCGR) (P47871 26-477): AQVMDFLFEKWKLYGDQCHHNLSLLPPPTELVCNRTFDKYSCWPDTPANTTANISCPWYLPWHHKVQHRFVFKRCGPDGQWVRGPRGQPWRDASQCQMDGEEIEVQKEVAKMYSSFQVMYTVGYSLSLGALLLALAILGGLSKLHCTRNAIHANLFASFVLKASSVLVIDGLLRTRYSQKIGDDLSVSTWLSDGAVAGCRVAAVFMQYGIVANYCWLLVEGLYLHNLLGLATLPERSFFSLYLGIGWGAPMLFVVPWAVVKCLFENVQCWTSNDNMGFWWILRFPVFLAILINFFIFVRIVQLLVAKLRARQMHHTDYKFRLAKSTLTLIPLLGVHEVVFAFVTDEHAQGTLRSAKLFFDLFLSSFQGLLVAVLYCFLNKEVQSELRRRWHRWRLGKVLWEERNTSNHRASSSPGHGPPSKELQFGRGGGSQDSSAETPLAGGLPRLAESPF
In short: as §1

% Relative Potency Ratio [1] | EC50 [2] [pM] | SMILES
23.0 | 6.68 | CCCCCCCCCCCCCCCC(=O)N[C@@H](CCC(=O)N[C@@H](CCC(=O)NCCOCCOCCC(=O)NCCOCCOCCC(=O)NCCCC[C@H](NC(=O)[C@H](CO)NC(=O)[C@H](CC(=O)O)NC(=O)[C@H](CC(C)C)NC(=O)[C@@H](NC(=O)[C@H](CCCCN)NC(=O)[C@H](CO)NC(=O)[C@@H](NC(=O)[C@H](CC(=O)O)NC(=O)[C@H](CO)NC(=O)[C@@H](NC(=O)[C@](C)(Cc1ccccc1)NC(=O)[C@H](CO)NC(=O)CNC(=O)[C@H](CCC(N)=O)NC(=O)C(C)(C)NC(=O)[C@@H](N)Cc1c[nH]cn1)[C@@H](C)O)C(C)C)[C@@H](C)CC)C(=O)N[C@@H](C)C(=O)N[C@@H](C)C(=O)N[C@@H](CCC(N)=O)C(=O)N[C@@H](CC(=O)O)C(=O)N[C@@](C)(Cc1ccccc1)C(=O)N[C@H](C(=O)N[C@@H](CCC(N)=O)C(=O)NC(C)(C)C(=O)N[C@H](C(=O)N[C@H](C(=O)N[C@@H](CC(N)=O)C(=O)N[C@H](C(N)=O)[C@@H](C)O)[C@@H](C)CC)[C@@H](C)CC)C(C)C)C(=O)O)C(=O)O [Peptide 125] (H-H[Aib]QGS[αMeF]TSDVSKILDSK([PEG2-PEG2-γGlu-γGlu-Palmitoyl])AAQD[αMeF]VQ[Aib]IINT-NH2; N-terminus assumed)
25.1 | 12.6 | CCCCCCCCCCCCCCCCCC(=O)N[C@@H](CCC(=O)NCCOCCOCCC(=O)NCCOCCOCCC(=O)NCCCC[C@H](NC(=O)[C@H](CO)NC(=O)[C@H](CC(=O)O)NC(=O)[C@H](CC(C)C)NC(=O)[C@@H](NC(=O)[C@H](CCCCN)NC(=O)[C@H](CO)NC(=O)[C@@H](NC(=O)[C@H](CC(=O)O)NC(=O)[C@H](CO)NC(=O)[C@@H](NC(=O)[C@](C)(Cc1ccccc1)NC(=O)[C@H](CO)NC(=O)CNC(=O)[C@H](CCC(N)=O)NC(=O)C(C)(C)NC(=O)[C@@H](N)Cc1c[nH]cn1)[C@@H](C)O)C(C)C)[C@@H](C)CC)C(=O)N[C@@H](C)C(=O)N[C@@H](C)C(=O)N[C@@H](CCC(N)=O)C(=O)N[C@@H](CC(=O)O)C(=O)N[C@@](C)(Cc1ccccc1)C(=O)N[C@H](C(=O)N[C@@H](CCC(N)=O)C(=O)NC(C)(C)C(=O)N[C@H](C(=O)N[C@H](C(=O)N[C@@H](CC(N)=O)C(=O)N[C@H](C(N)=O)[C@@H](C)O)[C@@H](C)CC)[C@@H](C)CC)C(C)C)C(=O)O [Peptide 127] (H-H[Aib]QGS[αMeF]TSDVSKILDSK([PEG2-PEG2-γGlu-Stearoyl])AAQD[αMeF]VQ[Aib]IINT-NH2; N-terminus assumed)
11.8 | 4.69 | CCCCCCCCCCCCCCCC(=O)N[C@@H](CCC(=O)NCCOCCOCCC(=O)NCCOCCOCCC(=O)NCCCC[C@H](NC(=O)[C@H](CO)NC(=O)[C@H](CC(=O)O)NC(=O)[C@H](CC(C)C)NC(=O)[C@@H](NC(=O)[C@H](CCCCN)NC(=O)[C@H](CO)NC(=O)[C@@H](NC(=O)[C@H](CC(=O)O)NC(=O)[C@H](CO)NC(=O)[C@@H](NC(=O)[C@](C)(Cc1ccccc1)NC(=O)[C@H](CO)NC(=O)CNC(=O)[C@H](CCC(N)=O)NC(=O)C(C)(C)NC(=O)[C@@H](N)Cc1c[nH]cn1)[C@@H](C)O)C(C)C)[C@@H](C)CC)C(=O)N[C@@H](C)C(=O)N[C@@H](C)C(=O)N[C@@H](CCC(N)=O)C(=O)N[C@@H](CC(=O)O)C(=O)N[C@@](C)(Cc1ccccc1)C(=O)N[C@H](C(=O)N[C@@H](CCC(N)=O)C(=O)NC(C)(C)C(=O)N[C@H](C(=O)N[C@H](C(=O)N[C@@H](CC(N)=O)C(=O)N[C@H](C(N)=O)[C@@H](C)O)[C@@H](C)CC)[C@@H](C)CC)C(C)C)C(=O)O [Peptide 128] (H-H[Aib]QGS[αMeF]TSDVSKILDSK([PEG2-PEG2-γGlu-Palmitoyl])AAQD[αMeF]VQ[Aib]IINT-NH2; N-terminus assumed)
